Test results: US5573936A, “Process for purifying echinocandin B deacylase” (Eli Lilly and Company, priority 1995, dated 1996)
*1 amine or outer side, *2 acyl side, *3 side chain or, on linkers, in order; H or OH if unused. Where a SMILES comes first, the peptide text is derived from it. Bridges are numbered along the chain shown (N, C = ends). [ ]: non-standard residue; d: D form. The star is where a group is joined. ξ: configuration not given here. ξOrn(4,5-diOH) = O=C(C(CC(O)C(O)N[*:3])N[*:1])[*:2]; ξhTyr(βξ-OH,γξ-OH) = NC(C(=O)O)C(O)C(O)c1ccc(O)cc1; ξPro(3ξ-OH,4ξ-Me) = CC1CNC(C(=O)O)C1O; X2 = O=C(C=Cc1ccc(N[*:1])cc1)[*:2]; Palmitoyl = CCCCCCCCCCCCCCCC(=O)*; X6 = O=C(Cc1ccc(N[*:1])cc1)[*:2]; X3 = CCCCCCCCOc1ccc(CC(=O)*)cc1; X5 = CCCCCCCOc1ccc(CCC(=O)*)cc1; X1 = CCCCCC=CCC=CCCCCCCCC(=O)*; X4 = CCCCCOc1ccc(CCC(=O)*)cc1; Hyp = O=C(O)[CH]1C[CH](O)CN1; Lauroyl = CCCCCCCCCCCC(=O)*; 4Abz = Nc1ccc(C(=O)O)cc1

Biological target: T1, ECB deacylase (Actinoplanes utahensis, UniProt P29958)
T1 construct: ECB deacylase is an 81-kilodalton (KD) heterodimer comprising 63-KD and 18 KD subunits; made in house; host or cells: Actinoplanes utahensis (native producer, not recombinant); enzyme solubilized from whole cells with salt and purified
T1 sequence (P29958 230-786 limits assumed): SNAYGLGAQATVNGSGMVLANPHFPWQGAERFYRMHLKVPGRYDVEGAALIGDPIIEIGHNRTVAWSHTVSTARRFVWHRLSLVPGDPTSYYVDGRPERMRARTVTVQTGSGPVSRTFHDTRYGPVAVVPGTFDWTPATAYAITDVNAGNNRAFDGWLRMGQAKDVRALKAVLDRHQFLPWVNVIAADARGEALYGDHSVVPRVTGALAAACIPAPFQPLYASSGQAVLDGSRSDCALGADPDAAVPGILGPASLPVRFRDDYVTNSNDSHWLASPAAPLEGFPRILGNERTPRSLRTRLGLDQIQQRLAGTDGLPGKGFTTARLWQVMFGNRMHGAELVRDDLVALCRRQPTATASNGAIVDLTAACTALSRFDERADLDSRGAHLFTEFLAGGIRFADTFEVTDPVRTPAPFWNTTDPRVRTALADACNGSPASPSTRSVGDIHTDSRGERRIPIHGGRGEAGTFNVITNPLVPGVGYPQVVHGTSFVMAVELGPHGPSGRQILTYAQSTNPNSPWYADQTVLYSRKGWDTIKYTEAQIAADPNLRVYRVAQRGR
T1 sequence (P29958 35-214 limits assumed): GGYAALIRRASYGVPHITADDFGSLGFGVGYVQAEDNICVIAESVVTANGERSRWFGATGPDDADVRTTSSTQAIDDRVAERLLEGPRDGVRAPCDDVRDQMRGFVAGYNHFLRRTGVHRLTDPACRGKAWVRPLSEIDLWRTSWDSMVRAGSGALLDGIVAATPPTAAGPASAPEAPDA
Assay: ECB deacylase assay (formation of ECB nucleus by HPLC)
Type: biochemical
Conditions: for percent activity relative to the deacylase activity of 100% for ECB itself: substrate specificity
Experimental: The assay employed herein for determining and measuring deacylase activity utilizes echinocandin B as substrate. A typical reaction mixture of 1 ml for ECB deacylase assay contained […] of ECB and 0.000003 to 0.003 unit of the enzyme in 0.05M KH2 PO4, pH 6.0, in the presence of 0.68M KCl and 15% DMSO to effect solution of the ECB. The enzymatic reaction was initiated by addition of the enzyme and was continued for 20 min at 60° C. before being interrupted by the addition of phosphoric acid. After a low-speed centrifugation to remove precipitated protein, the deacylase activity was determined by monitoring the formation of ECB nucleus at 225 nm using HPLC.
HPLC components were IBM PS/2 Model 80 and Color Display (IBM, Armonk, N.Y.), a Water 715 Ultra WISP Sample Processor (Waters Associates, Milford, Mass.), and a Beckman System Gold Programmable Solvent Module 126 and Scanning Detector Module 167 (Beckman, Fullerton, Calif.).
The ECB nucleus was eluted from an Apex Octadecyl 3 μ column (4.6×10 cm) (Jones Chromatography, Littleton, Co.) with a mobile phase of 3.9% CH3 CN/0.1% trifluoroacetic acid and a flow rate of 1 ml/min. The nucleus formation was linear with time during the assays. […] As used herein one unit of enzyme activity is defined as the amount of the deacylase required to cause formation of one μmole of the ECB nucleus per minute from ECB under the above described reaction conditions.

## CCCCCCCCCCCC(=O)Nc1ccc(C(=O)NC2CC(O)C(O)NC(=O)C3C(O)C(C)CN3C(=O)C(C(C)O)NC(=O)C(C(O)C(O)c3ccc(O)cc3)NC(=O)C3CC(O)CN3C(=O)C(C(C)O)NC2=O)cc1 (stereo not drawn) ({Lauroyl-4Abz}-[ξOrn(4,5-diOH)]T[Hyp][ξhTyr(βξ-OH,γξ-OH)]T[ξPro(3ξ-OH,4ξ-Me)]; lactam 1-C; configuration not given here)
Purified deacylase
  substrate of the purified deacylase (in words): substrates

## CCCCCCCCCCCCCCCC(=O)NC1CC(O)C(O)NC(=O)C2C(O)C(C)CN2C(=O)C(C(C)O)NC(=O)C(C(O)C(O)c2ccc(O)cc2)NC(=O)C2CC(O)CN2C(=O)C(C(C)O)NC1=O (stereo not drawn) [aculeacin] (Palmitoyl-[ξOrn(4,5-diOH)]T[Hyp][ξhTyr(βξ-OH,γξ-OH)]T[ξPro(3ξ-OH,4ξ-Me)]; lactam 1-C; configuration not given here)
Purified deacylase
  substrate of the purified deacylase (in words): deacylates

## CCCCCCCOc1ccc(CCC(=O)NC2CC(O)C(O)NC(=O)C3C(O)C(C)CN3C(=O)C(C(C)O)NC(=O)C(C(O)C(O)c3ccc(O)cc3)NC(=O)C3CC(O)CN3C(=O)C(C(C)O)NC2=O)cc1 (stereo not drawn) (X5-[ξOrn(4,5-diOH)]T[Hyp][ξhTyr(βξ-OH,γξ-OH)]T[ξPro(3ξ-OH,4ξ-Me)]; lactam 1-C; configuration not given here)
Purified deacylase
  percent activity relative to the deacylase activity of 100% for ECB itself: 30%

## CCCCCCCCCCCC(=O)Nc1ccc(C=CC(=O)NC2CC(O)C(O)NC(=O)C3C(O)C(C)CN3C(=O)C(C(C)O)NC(=O)C(C(O)C(O)c3ccc(O)cc3)NC(=O)C3CC(O)CN3C(=O)C(C(C)O)NC2=O)cc1 (stereo not drawn) (Lauroyl-[X2][ξOrn(4,5-diOH)]T[Hyp][ξhTyr(βξ-OH,γξ-OH)]T[ξPro(3ξ-OH,4ξ-Me)]; lactam 2-C; configuration not given here)
Purified deacylase
  percent activity relative to the deacylase activity of 100% for ECB itself: 15%

## CCCCCC=CCC=CCCCCCCCC(=O)NC1CC(O)C(O)NC(=O)C2C(O)C(C)CN2C(=O)C(C(C)O)NC(=O)C(C(O)C(O)c2ccc(O)cc2)NC(=O)C2CC(O)CN2C(=O)C(C(C)O)NC1=O (stereo not drawn) [echinocandin B] (X1-[ξOrn(4,5-diOH)]T[Hyp][ξhTyr(βξ-OH,γξ-OH)]T[ξPro(3ξ-OH,4ξ-Me)]; lactam 1-C; configuration not given here)
  ratio of ECB nucleus formed to ECB disappearance (reaction stoichiometry): about 52.4%
Purified deacylase
  substrate of the purified deacylase (in words): deacylates
  percent activity relative to the deacylase activity of 100% for ECB itself: 100%
Purified enzyme
  Vmax for the ECB reaction: 10 to 11 µmol/min/mg

## CCCCCCCCOc1ccc(CC(=O)NC2CC(O)C(O)NC(=O)C3C(O)C(C)CN3C(=O)C(C(C)O)NC(=O)C(C(O)C(O)c3ccc(O)cc3)NC(=O)C3CC(O)CN3C(=O)C(C(C)O)NC2=O)cc1 (stereo not drawn) (X3-[ξOrn(4,5-diOH)]T[Hyp][ξhTyr(βξ-OH,γξ-OH)]T[ξPro(3ξ-OH,4ξ-Me)]; lactam 1-C; configuration not given here)
Purified deacylase
  percent activity relative to the deacylase activity of 100% for ECB itself: 30%

## CCCCCOc1ccc(CCC(=O)NC2CC(O)C(O)NC(=O)C3C(O)C(C)CN3C(=O)C(C(C)O)NC(=O)C(C(O)C(O)c3ccc(O)cc3)NC(=O)C3CC(O)CN3C(=O)C(C(C)O)NC2=O)cc1 (stereo not drawn) (X4-[ξOrn(4,5-diOH)]T[Hyp][ξhTyr(βξ-OH,γξ-OH)]T[ξPro(3ξ-OH,4ξ-Me)]; lactam 1-C; configuration not given here)
Purified deacylase
  percent activity relative to the deacylase activity of 100% for ECB itself: 12%

## CCN1C(=O)C=CC1=O [N-ethylmaleimide (NEM), N-ethylmaleimide]
Purified deacylase
  enhancement of the rate of conversion of ECB to ECB nucleus: 6-7 fold

## Daptomycin
Purified deacylase
  substrate of the purified deacylase (in words): cleaves the fatty acid side chain

## CCCCCCCCCCCC(=O)Nc1ccc(CC(=O)NC2CC(O)C(O)NC(=O)C3C(O)C(C)CN3C(=O)C(C(C)O)NC(=O)C(C(O)C(O)c3ccc(O)cc3)NC(=O)C3CC(O)CN3C(=O)C(C(C)O)NC2=O)cc1 (stereo not drawn) (Lauroyl-[X6][ξOrn(4,5-diOH)]T[Hyp][ξhTyr(βξ-OH,γξ-OH)]T[ξPro(3ξ-OH,4ξ-Me)]; lactam 2-C; configuration not given here)
Purified deacylase
  percent activity relative to the deacylase activity of 100% for ECB itself: 5%
